Experimental data reported in patent US20080064667A1, “OXAZOLE DERIVATIVES OF TETRACYCLINES” (Wyeth, priority 2003, published 2008).
≈ marks a conversion by molar mass, not a printed value.

Experiments:
Assay in all cases: MIC, broth microdilution (NCCLS)
Format in all cases: cell-based
[1] = test system: E. faecalis GC4555 (ATCC Control); conditions: Enterococcus faecalis, Mueller-Hinton II broth, 18-22 hours at 35° C.
Description: (§1) Methods for in Vitro Antibacterial Evaluation
(§2) The Minimum Inhibitory Concentration (MIC)
(§3) Antimicrobial susceptibility testing. The in vitro activities of the antibiotics are determined by the broth microdilution method as recommended by the National Committee for Clinical Laboratory Standards (NCCLS) (1). Mueller-Hinton II broth (MHBII)(BBL Cockeysville, Md.) is the medium employed in the testing procedures. Microtiter plates containing serial dilutions of each antimicrobial agent are inoculated with each organism to yield the appropriate density (10^5 CFU/ml) in a 100 μl final volume. The plates are incubated for 18-22 hours at 35° C. in ambient air.
(§4) 1. NCCLS. 2000. Methods for Dilution Antimicrobial Susceptibility Tests for Bacteria That Grow Aerobically; Approved Standards: M7-A5, vol. 20. National Committe for Clinical Laboratory Standards, Wayne, Pa.

[2] = test system: M. catarrhalis* GC6907 (Clinical); conditions: Moraxella catarrhalis, Mueller-Hinton II broth, 18-22 hours at 35° C.
Description: as §1, §2, §3, §4

[3] = test system: E. coli GC2203 (ATCC Control); conditions: Escherichia coli, Mueller-Hinton II broth, 18-22 hours at 35° C.
Description: as §1, §2, §3, §4

[4] = test system: E. faecalis GC2242 (Van-resistant); conditions: Enterococcus faecalis, Mueller-Hinton II broth, 18-22 hours at 35° C.
Description: as §1, §2, §3, §4

[5] = test system: S. pneumoniae* GC1894 (Clinical); conditions: Streptococcus pneumoniae, Mueller-Hinton II broth, 18-22 hours at 35° C.
Description: as §1, §2, §3, §4

E. coli GC2270 (tet(M)) = conditions: Escherichia coli
Description: as §1, §2, §3, §4

[6] = test system: S. aureus GC1131 (Clinical); conditions: Staphylococcus aureus, Mueller-Hinton II broth, 18-22 hours at 35° C.
Description: as §1, §2, §3, §4

[7] = test system: S. aureus GC1079 (tet(K)); conditions: Staphylococcus aureus, Mueller-Hinton II broth, 18-22 hours at 35° C.
Description: as §1, §2, §3, §4

[8] = test system: S. pyogenes* GC4563 (Clinical); conditions: Streptococcus pyogenes, Mueller-Hinton II broth, 18-22 hours at 35° C.
Description: as §1, §2, §3, §4

[9] = test system: S. aureus GC2216 (ATCC Control); conditions: Staphylococcus aureus, Mueller-Hinton II broth, 18-22 hours at 35° C.
Description: as §1, §2, §3, §4

[10] = test system: S. pneumoniae* GC4465 (Clinical); conditions: Streptococcus pneumoniae, Mueller-Hinton II broth, 18-22 hours at 35° C.
Description: as §1, §2, §3, §4

[11] = test system: E. coli GC4559 (parent GC4560); conditions: Escherichia coli, Mueller-Hinton II broth, 18-22 hours at 35° C.
Description: as §1, §2, §3, §4

[12] = test system: S. aureus GC4536 (Smith MP -In Vivo); conditions: Staphylococcus aureus, Mueller-Hinton II broth, 18-22 hours at 35° C.
Description: as §1, §2, §3, §4

E. coli GC1073 (tet(B)) = conditions: Escherichia coli
Description: as §1, §2, §3, §4

[13] = test system: H. influenzae<> GC6896 (ATCC Control); conditions: Haemophilus influenzae, Mueller-Hinton II broth, 18-22 hours at 35° C.
Description: as §1, §2, §3, §4

[14] = test system: C. albicans GC3066 ATCC (Control); conditions: Candida albicans, Mueller-Hinton II broth, 18-22 hours at 35° C.
Description: as §1, §2, §3, §4

[15] = test system: E. coli GC4560 (IMP mutant); conditions: Escherichia coli
Description: as §1, §2, §3, §4

[16] = test system: S. aureus GC6466 (tet(M)); conditions: Staphylococcus aureus, Mueller-Hinton II broth, 18-22 hours at 35° C.
Description: as §1, §2, §3, §4

Row | Structure (SMILES) | MIC [1] [µg/mL] | MIC [2] [µg/mL] | MIC [3] [µg/mL] | MIC [4] [µg/mL] | MIC [5] [µg/mL] | MIC (E. coli GC2270 (tet(M))) [µg/mL] | MIC [6] [µg/mL] | MIC [7] [µg/mL] | MIC [8] [µg/mL] | MIC [9] [µg/mL] | MIC [10] [µg/mL] | MIC [11] [µg/mL] | MIC [12] [µg/mL] | MIC (E. coli GC1073 (tet(B))) [µg/mL] | MIC [13] [µg/mL] | MIC [14] [µg/mL] | MIC [15] [µg/mL] | MIC [16] [µg/mL]
1 | CN(C)c1cc2nc(/C=C/c3ccccc3F)oc2c2c1C[C@H]1C[C@H]3[C@H](N(C)C)C(O)=C(C(N)=O)C(=O)[C@@]3(O)C(O)=C1C2=O [Example 30, (6aR,7aS,8S,11aS)-5,8-bis(dimethylamino)-2-[(E)-2-(2-fluorophenyl)ethenyl]-9,11a,12-trihydroxy-11,13-dioxo-6,6a,7,7a,8,11,11a,13-octahydrotetraceno[2,1-d][1,3]oxazole-10-carboxamide] | 8 (≈ 13.3 µM) | 32 (≈ 53.1 µM) | > 64 | 4 (≈ 6.64 µM) | 16 (≈ 26.6 µM) | > 64 | 4 (≈ 6.64 µM) | 8 (≈ 13.3 µM) | 16 (≈ 26.6 µM) | 4 (≈ 6.64 µM) | 16 (≈ 26.6 µM) | > 64 | 8 (≈ 13.3 µM) | > 64 | > 64 | > 64 | 8 (≈ 13.3 µM) | 8 (≈ 13.3 µM)
2 | Cc1ccc(-c2nc3cc(N(C)C)c4c(c3o2)C(=O)C2=C(O)[C@]3(O)C(=O)C(C(N)=O)=C(O)[C@@H](N(C)C)[C@@H]3C[C@@H]2C4)cc1 [Example 5, (6aR,7aS,8S,11aS)-5,8-bis(dimethylamino)-9,11a,12-trihydroxy-2-(4-methylphenyl)-11,13-dioxo-6,6a,7,7a,8,11,11a,13-octahydrotetraceno[2,1-d][1,3]oxazole-10-carboxamide] | 4 (≈ 6.99 µM) | 16 (≈ 27.9 µM) | > 64 | 4 (≈ 6.99 µM) | 8 (≈ 14 µM) | > 64 | 4 (≈ 6.99 µM) | 4 (≈ 6.99 µM) | 16 (≈ 27.9 µM) | 4 (≈ 6.99 µM) | 16 (≈ 27.9 µM) | > 64 | 4 (≈ 6.99 µM) | > 64 | > 64 | > 64 | 4 (≈ 6.99 µM) | 4 (≈ 6.99 µM)
3 | CN(C)c1cc2nc(-c3ccncc3)oc2c2c1C[C@H]1C[C@H]3[C@H](N(C)C)C(O)=C(C(N)=O)C(=O)[C@@]3(O)C(O)=C1C2=O [Example 33, (6aR,7aS,8S,11aS)-5,8-bis(dimethylamino)-9,11a,12-trihydroxy-11,13-dioxo-2-pyridin-4-yl-6,6a,7,7a,8,11,11a,13-octahydrotetraceno[2,1-d][1,3]oxazole-10-carboxamide] | 16 (≈ 28.6 µM) | 8 (≈ 14.3 µM) | 64 (≈ 114 µM) | 16 (≈ 28.6 µM) | 32 (≈ 57.2 µM) | > 64 | 16 (≈ 28.6 µM) | 16 (≈ 28.6 µM) | 8 (≈ 14.3 µM) | 16 (≈ 28.6 µM) | 16 (≈ 28.6 µM) | > 64 | 16 (≈ 28.6 µM) | > 64 | 32 (≈ 57.2 µM) | > 64 | 16 (≈ 28.6 µM) | 32 (≈ 57.2 µM)
4 | CN(C)c1cc2nc(-c3ccco3)oc2c2c1C[C@H]1C[C@H]3[C@H](N(C)C)C(O)=C(C(N)=O)C(=O)[C@@]3(O)C(O)=C1C2=O [Example 20, (6aR,7aS,8S,1aS)-5,8-bis(dimethylamino)-2-(2-furyl)-9,11a,1 2-trihydroxy-11,13-dioxo-6,6a,7,7a,8,11,11a,13-octahydrotetraceno[2,1-d][1,3]oxazole-10-carboxamide] | 64 (≈ 117 µM) | 32 (≈ 58.3 µM) | > 64 | 32 (≈ 58.3 µM) | 64 (≈ 117 µM) | > 64 | 32 (≈ 58.3 µM) | 32 (≈ 58.3 µM) | 32 (≈ 58.3 µM) | 32 (≈ 58.3 µM) | > 64 | > 64 | 64 (≈ 117 µM) | > 64 | > 64 | > 64 | 32 (≈ 58.3 µM) | 32 (≈ 58.3 µM)
